Measurements published in ChEMBL document CHEMBL4346726 (Bioorg Med Chem Lett, 2019).

How the values were obtained:
Hepatitis C virus [1] = experiment: Antiviral activity against HCV genotype 1a harboring Q80K mutant in RLuc cells assessed as reduction in viral replication by luciferase reporter gene assay; assay type: functional, organism-based, Hepacivirus hominis; details: subtype 1a
[2] = Inhibition of HCV genotype 3a NS3/4a protease by enzymatic assay; design: species or system Hepatitis C virus subtype 3a
Hepatitis C virus [3] = experiment: Antiviral activity against HCV genotype 3a in RLuc cells assessed as reduction in viral replication by luciferase reporter gene assay; assay type: functional, organism-based, Hepacivirus hominis, subtype 3a; details: Hepatitis C virus, subtype 3a
[4] = Half life in rat at 1 mg/kg, iv or 3 mg/kg, po; assay type: ADME, organism-based; details: in vivo
[5] = Half life in dog at 0.5 mg/kg, iv or 1 mg/kg, po; assay type: ADME, […], Canis lupus familiaris; details: in vivo
[6] = Volume of distribution at steady state in cynomolgus monkey at 0.5 mg/kg, iv or 1 mg/kg, po; assay type: ADME, organism-based, Macaca fascicularis; details: in vivo, read-out: Vdss
Hepacivirus hominis = experiment: Binding affinity to HCV NS3/4a protease assessed as compound-protein adduct formation per mg protein using radiolabelled compound
Hepatitis C virus [7] = experiment: Antiviral activity against HCV genotype 1a in RLuc cells assessed as reduction in viral replication by luciferase reporter gene assay; assay type: functional, organism-based, Hepacivirus hominis; details: subtype 1a
Hepatitis C virus [8] = experiment: Antiviral activity against HCV genotype 1b in RLuc cells assessed as reduction in viral replication by luciferase reporter gene assay; assay type: functional, organism-based, Hepacivirus hominis; details: subtype 1b
Hepatitis C virus [9] = experiment: Antiviral activity against HCV genotype 2a in RLuc cells assessed as reduction in viral replication by luciferase reporter gene assay; assay type: functional, organism-based, Hepacivirus hominis; details: subtype 2a
Hepatitis C virus [10] = experiment: Antiviral activity against HCV genotype 2b in RLuc cells assessed as reduction in viral replication by luciferase reporter gene assay; assay type: functional, organism-based, Hepacivirus hominis; details: subtype 2b
Hepatitis C virus [11] = experiment: Antiviral activity against HCV genotype 4a in RLuc cells assessed as reduction in viral replication by luciferase reporter gene assay; assay type: functional, organism-based, Hepacivirus hominis; details: subtype 4a
Hepatitis C virus [12] = experiment: Antiviral activity against HCV genotype 5a in RLuc cells assessed as reduction in viral replication by luciferase reporter gene assay; assay type: functional, organism-based, Hepacivirus hominis; details: subtype 5a
Hepatitis C virus [13] = experiment: Antiviral activity against HCV genotype 6a in RLuc cells assessed as reduction in viral replication by luciferase reporter gene assay; assay type: functional, organism-based, Hepacivirus hominis; details: subtype 6a
Hepatitis C virus [14] = experiment: Antiviral activity against HCV genotype 1a harboring R155K mutant in RLuc cells assessed as reduction in viral replication by luciferase reporter gene assay; assay type: functional, organism-based, Hepacivirus hominis; details: subtype 1a
Hepatitis C virus [15] = experiment: Antiviral activity against HCV genotype 1b harboring D168E mutant in RLuc cells assessed as reduction in viral replication by luciferase reporter gene assay; assay type: functional, organism-based, Hepacivirus hominis; details: subtype 1b
Hepatitis C virus [16] = experiment: Antiviral activity against HCV genotype 1a harboring A156T mutant in RLuc cells assessed as reduction in viral replication by luciferase reporter gene assay; assay type: functional, organism-based, Hepacivirus hominis; details: subtype 1a
Hepatitis C virus [17] = experiment: Antiviral activity against HCV genotype 1b harboring A156T mutant in RLuc cells assessed as reduction in viral replication by luciferase reporter gene assay; assay type: functional, organism-based, Hepacivirus hominis; details: subtype 1b
[18] = Fraction unbound in rat plasma; assay type: ADME, cell-free
[19] = Fraction unbound in dog plasma; assay type: ADME, cell-free, Canis lupus familiaris
[20] = Fraction unbound in cynomolgus monkey plasma; assay type: ADME, cell-free, Macaca fascicularis
[21] = Fraction unbound in human plasma; assay type: ADME, cell-free
[22] = Clearance in rat at 1 mg/kg, iv or 3 mg/kg, po; assay type: ADME, organism-based; details: in vivo
[23] = Clearance in dog at 0.5 mg/kg, iv or 1 mg/kg, po; assay type: ADME, […], Canis lupus familiaris; details: in vivo
[24] = Clearance in cynomolgus monkey at 0.5 mg/kg, iv or 1 mg/kg, po; assay type: ADME, organism-based, Macaca fascicularis; details: in vivo
[25] = Volume of distribution at steady state in rat at 1 mg/kg, iv or 3 mg/kg, po; assay type: ADME, organism-based; details: in vivo, read-out: Vdss
[26] = Volume of distribution at steady state in dog at 0.5 mg/kg, iv or 1 mg/kg, po; assay type: ADME, […], Canis lupus familiaris; details: in vivo, read-out: Vdss
[27] = Half life in cynomolgus monkey at 0.5 mg/kg, iv or 1 mg/kg, po; assay type: ADME, organism-based, Macaca fascicularis; details: in vivo
[28] = Oral bioavailability in rat at 3 mg/kg; assay type: ADME, organism-based; details: in vivo
[29] = Oral bioavailability in dog at 1 mg/kg; assay type: ADME, […], Canis lupus familiaris; details: in vivo
[30] = Oral bioavailability in cynomolgus monkey at 1 mg/kg; assay type: ADME, organism-based, Macaca fascicularis; details: in vivo
[31] = Fraction absorbed in rat at 3 mg/kg, po; assay type: ADME, organism-based; details: in vivo, read-out: Fabs
[32] = Fraction absorbed in dog at 1 mg/kg, po; assay type: ADME, […], Canis lupus familiaris; details: in vivo, read-out: Fabs
[33] = Fraction absorbed in cynomolgus monkey at 1 mg/kg, po; assay type: ADME, organism-based, Macaca fascicularis; details: in vivo, read-out: Fabs
[34] = Ratio of drug level in rat liver to plasma at 1 mg/kg, iv or 3 mg/kg, po measured at 2 hr; assay type: ADME, organism-based
[35] = Ratio of drug level in dog liver to plasma at 0.5 mg/kg, iv or 1 mg/kg, po measured at 2 hr; assay type: ADME, […], Canis lupus familiaris
[36] = Ratio of drug level in cynomolgus monkey liver to plasma at 0.5 mg/kg, iv or 1 mg/kg, po measured at 2 hr; assay type: ADME, organism-based, Macaca fascicularis
[37] = Selectivity ratio of EC50 for antiviral activity against HCV genotype 3a to EC50 for antiviral activity against HCV genotype 1a; assay type: functional
[38] = Protein binding in rat plasma; assay type: ADME; details: read-out: PPB
[39] = Protein binding in dog plasma; assay type: ADME, Canis lupus familiaris; details: read-out: PPB
[40] = Protein binding in cynomolgus monkey plasma; assay type: ADME, Macaca fascicularis; details: read-out: PPB
[41] = Protein binding in human plasma; assay type: ADME; details: read-out: PPB
[42] = Drug uptake in human hepatocytes; assay type: ADME, cell-based, Hepatocyte; details: TDE = time-dependent effect
[43] = Drug uptake in organic-anion-transporting polypeptide over expressing CHO cells; assay type: ADME, cell-based, Cricetulus griseus; details: chinese hamster, TDE = time-dependent effect
[44] = Steady state half life in human at 30 to 300 mg administered once daily for 7 days measured under phase 1 clinical trials; assay type: ADME; details: in vivo, read-out: t1/2ss

`CC[C@@H]1[C@@H]2CN(C(=O)[C@H](C(C)(C)C)NC(=O)O[C@@H]3C[C@H]3CCCCC(F)(F)c3nc4ccc(OC)cc4nc3O2)[C@@H]1C(=O)N[C@]1(C(=O)NS(=O)(=O)C2(C)CC2)C[C@H]1C(F)F` gave an EC50 (Hepatitis C virus [1]) of 3.1 nM, a Ki [2] of 0.063 nM and an EC50 (Hepatitis C virus [3]) of 6.1 nM. For the same molecule, the half-life [4] was 0.93 h, the half-life [5] was 4.2 h and the Vd [6] was 0.8 L/kg. It also gave a PB (Hepacivirus hominis) of less than 1 pmol/mg, an EC50 (Hepatitis C virus [7]) of 3.9 nM and an EC50 (Hepatitis C virus [8]) of 3.3 nM. It also gave an EC50 (Hepatitis C virus [9]) of 3.7 nM, an EC50 (Hepatitis C virus [10]) of 6.6 nM and an EC50 (Hepatitis C virus [11]) of 4.9 nM. The EC50 (Hepatitis C virus [12]) was 1.9 nM, the EC50 (Hepatitis C virus [13]) was 1.5 nM and the EC50 (Hepatitis C virus [14]) was 2.7 nM. The EC50 (Hepatitis C virus [15]) was 4 nM, the EC50 (Hepatitis C virus [16]) was greater than 500 nM and the EC50 (Hepatitis C virus [17]) was greater than 500 nM. For the same molecule, the Fu [18] was 0.42%, the Fu [19] was 0.28% and the Fu [20] was 0.91%. The Fu [21] was 0.46%, the clearance [22] was 13.7 mL/min/kg and the clearance [23] was 3.17 mL/min/kg. For the same molecule, the clearance [24] was 14.8 mL/min/kg, the Vd [25] was 0.84 L/kg and the Vd [26] was 0.94 L/kg. The half-life [27] was 2.1 h, the bioavailability [28] was 83% and the bioavailability [29] was 27%. For the same molecule, the bioavailability [30] was 10%, the Fa [31] was 100% and the Fa [32] was 30%. It also gave a Fa [33] of 23%, a Kp at 2 h [34] greater than 500 and a Kp at 2 h [35] of 55. The Kp at 2 h [36] was 100, the “Ratio EC50” value [37] was less than 2 and the fraction unbound [38] was less than 0.01. For the same molecule, the fraction unbound [39] was less than 0.01, the fraction unbound [40] was less than 0.01 and the fraction unbound [41] was less than 0.01. For the same molecule, the Drug uptake [42] was “Tde”, the Drug uptake [43] was “Tde” and the half-life [44] was 28 to 41 h.
